The target in experiment [1] is T1, cVanSB (cytosolic domain of VanSB) (Enterococcus faecalis, UniProt Q47745).
T1 construct: cytosolic domain M159-L447, C-terminal His6 (pETCH), expressed in E. coli
Put plainly: autophosphorylation with ATPγS, anti-thiophosphohistidine (PNBM) Western blot. It is filed as biochemical. The conditions noted are these: 1 mM ATPγS, 10 mM MgCl2, pH 7.4; not affected by vancomycin. Background: A western blot detects proteins with antibodies after separation by electrophoresis.

Experiment [2] deals with full-length VanSB (in nanodiscs) (Enterococcus faecalis, UniProt Q47745). Nature of the experiment: biochemical.
full-length VanSB (in nanodiscs), sequence (Q47745 whole entry, the tested form may be a part): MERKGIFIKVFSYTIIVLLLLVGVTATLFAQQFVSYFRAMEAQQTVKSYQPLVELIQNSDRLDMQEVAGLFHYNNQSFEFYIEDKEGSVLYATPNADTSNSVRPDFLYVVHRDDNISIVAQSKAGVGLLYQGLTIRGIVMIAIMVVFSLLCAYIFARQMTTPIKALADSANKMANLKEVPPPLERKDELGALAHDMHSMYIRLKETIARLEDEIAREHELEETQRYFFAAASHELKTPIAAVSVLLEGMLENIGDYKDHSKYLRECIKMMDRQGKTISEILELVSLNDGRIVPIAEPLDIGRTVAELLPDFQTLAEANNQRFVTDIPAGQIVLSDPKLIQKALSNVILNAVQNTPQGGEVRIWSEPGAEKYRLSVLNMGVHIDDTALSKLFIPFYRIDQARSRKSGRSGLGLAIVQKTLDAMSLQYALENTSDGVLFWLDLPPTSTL
Experiment [3] has as its target T2, single-copy VanSB periplasmic sensor domain (Enterococcus faecalis, UniProt Q47745). Nature of the experiment: biochemical.
The target in experiment [4] is T3, tandem VanSB periplasmic sensor domain (Enterococcus faecalis, UniProt Q47745). Nature of the experiment: biochemical.
T3 sequence (Q47745 31-132): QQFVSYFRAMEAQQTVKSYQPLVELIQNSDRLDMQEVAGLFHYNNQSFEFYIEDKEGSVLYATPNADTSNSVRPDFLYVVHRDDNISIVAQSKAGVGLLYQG
The target in experiment [5] is T3, tandem VanSB periplasmic sensor domain. Put plainly: fluorescence anisotropy. It is filed as binding. Set-up: two copies of periplasmic domain Q31-G132 in one polypeptide joined by GSGGS linker; expressed in E. coli as TEV-cleavable 6xHis-MBP fusion, tag removed. The conditions noted are these: labelled compound, 100 nM; 20 mM Tris pH 7.5, 100 mM NaCl, 0.01% Triton X-100, room temperature. For orientation: Fluorescence polarisation rises when a labelled molecule tumbles more slowly, as on binding a larger partner.

For experiment [6], the target named is T2, single-copy VanSB periplasmic sensor domain. Put plainly: fluorescence anisotropy. It is filed as binding. Set-up: periplasmic sensor domain Q31-G132, single copy; expressed in E. coli as TEV-cleavable 6xHis-MBP fusion, tag removed. The following applies: labelled compound, 100 nM; 20 mM Tris pH 7.5, 100 mM NaCl, 0.01% Triton X-100, room temperature.

We go through four molecules from publication PMC12212144, “The VanS sensor histidine kinase from type-B vancomycin-resistant enterococci recognizes vancomycin directly” (The Journal of Biological Chemistry, 2025).

T2 sequence (Q47745 31-132): as above
T1 sequence (Q47745 159-447): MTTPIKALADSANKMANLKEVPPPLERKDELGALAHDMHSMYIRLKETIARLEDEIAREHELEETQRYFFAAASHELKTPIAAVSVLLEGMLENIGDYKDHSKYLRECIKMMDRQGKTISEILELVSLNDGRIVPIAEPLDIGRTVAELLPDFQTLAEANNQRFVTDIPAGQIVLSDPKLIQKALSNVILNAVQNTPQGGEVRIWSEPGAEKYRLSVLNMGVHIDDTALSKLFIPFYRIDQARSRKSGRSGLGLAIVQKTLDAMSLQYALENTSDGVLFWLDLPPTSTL

Consider `Nc1ncnc2c1ncn2[C@@H]1O[C@H](COP(=O)(O)OP(=O)(O)OP(O)(O)=S)[C@@H](O)[C@H]1O` [ATPγS], for which the “autophosphorylation with ATPγS, anti-thiophosphohistidine (PNBM) Western blot” value in experiment [1] is “autophosphorylation time course for full-length VanSB (reconstituted in nanodiscs) and its cytosolic domain”.

For orientation: EC50 means the concentration giving half of the maximal effect. Read a high EC50 as lower potency in that assay. The term Kd denotes the concentration at which binding is half-saturated. Read a high Kd as lower affinity. `CN[C@H](CC(C)C)C(=O)N[C@H]1C(=O)N[C@@H](CC(N)=O)C(=O)N[C@H]2C(=O)N[C@H]3C(=O)N[C@H](C(=O)N[C@H](C(=O)O)c4cc(O)cc(O)c4-c4cc3ccc4O)[C@H](O)c3ccc(c(Cl)c3)Oc3cc2cc(c3O[C@@H]2O[C@H](CO)[C@@H](O)[C@H](O)[C@H]2O[C@H]2C[C@](C)(N)[C@H](O)[C@H](C)O2)Oc2ccc(cc2Cl)[C@H]1O` [vancomycin] displayed a 50% effective concentration (EC50) in experiment [2] of 43 ± 12.5 µM. Further, the Kd in experiment [3] amounted to 20.7 µM; in experiment [4] it was 11 µM.

AF488-vancomycin came in with a Kd in experiment [5] of 11 µM.

Turning to `CN[C@H](CC(C)C)C(=O)N[C@H]1C(=O)N[C@@H](CC(N)=O)C(=O)N[C@H]2C(=O)N[C@H]3C(=O)N[C@H](C(=O)N[C@H](C(=O)O)c4cc(O)cc(O)c4-c4cc3ccc4O)[C@H](O)c3ccc(c(Cl)c3)Oc3cc2cc(c3O[C@@H]2O[C@H](CO)[C@@H](O)[C@H](O)[C@H]2O[C@H]2C[C@](C)(NC(=O)CCc3ccc4n3[B-](F)(F)[N+]3=C(C)C=C(C)C3=C4)[C@H](O)[C@H](C)O2)Oc2ccc(cc2Cl)[C@H]1O` [BODIPY-FL-vancomycin], the Kd in experiment [5] was determined as 10.7 µM; in experiment [6] it was 20.3 µM.
